Publication PMC10786692 (The Journal of Clinical Investigation, 2024)
Where “and” joins values, the source holds several entries; their conditions need not be identical. Equal entries are not always repeated. Where two headings read alike, the source gives them in different places.

Experiment: Plasma pharmacokinetics of ceralasertib (HPLC-MS/MS, NCA)
Type: in vivo, human
Method: Intensive PK sampling in part A occurred after a single dose from predose up to 24 to 72 hours and again at day 15 and day 29 of continuous dosing. Participants fasted for 1 hour before and 2 hours after dosing for PK assessment. In part B, sampling coincided with day 15 PD assessments. Full details are given in Supplemental Methods. […]
Evaluated PK […]
maximum observed plasma concentration (Cmax), time to Cmax (tmax), and apparent terminal half-life (t1/2) calculated as ln/lambda-z where lambda-z (lz) is the apparent terminal phase rate- […]
constant estimated by linear regression of logarithmically-transformed concentration-versus-time data. A minimum of three data points were used in calculating lz as per AstraZeneca standard operating procedures. Data from multiple dosing were used to derive accumulation ratios based on Cmax (Race Cmax) and AUC(0-8) (Rac AUC0-8) defined as the ratio between Cmax or AUC(0-8) after multiple dose and Cmax and AUC(0-8) at day 1. All PK parameters for […]
WinNonLin v8.3 software or higher where the ‘linear up/log down trapezoidal rule’ for AUC was […]
applied. […]

C[C@@H]1COCCN1c1cc(C2([S@](C)(=N)=O)CC2)nc(-c2cc[nH]c3nccc2-3)n1 [ceralasertib]
Plasma concentration, individual patients (20 mg day 0, 24 h): 142 ng/mL and 138 ng/mL and 380 ng/mL | Plasma concentration, individual patients (20 mg day 1, 24 h): 632 ng/mL and 586 ng/mL and 929 ng/mL | Plasma concentration, individual patients (40 mg day 0, 0 h, in ng/mL): 0 | Plasma concentration, individual patients (40 mg day 0, 0.5 h): 760 ng/mL and 1280 ng/mL and 301 ng/mL | Plasma concentration, individual patients (40 mg day 0, 1 h): 1150 ng/mL and 2230 ng/mL and 1660 ng/mL | Plasma concentration, individual patients (40 mg day 0, 2 h): 1660 ng/mL and 1430 ng/mL | Plasma concentration, individual patients (40 mg day 0, 4 h): 1330 ng/mL and 1170 ng/mL | Plasma concentration, individual patients (40 mg day 0, 8 h): 894 ng/mL and 668 ng/mL | Plasma concentration, individual patients (40 mg day 0, 24 h): 226 ng/mL and 224 ng/mL | Plasma concentration, individual patients (40 mg day 1, 0.5 h): 1850 ng/mL and 634 ng/mL and 1990 ng/mL | Plasma concentration, individual patients (40 mg day 1, 1 h): 1440 ng/mL and 1570 ng/mL | Plasma concentration, individual patients (40 mg day 1, 2 h): 2060 ng/mL and 1610 ng/mL | Plasma concentration, individual patients (40 mg day 1, 4 h): 1500 ng/mL and 1300 ng/mL | Plasma concentration, individual patients (40 mg day 1, 8 h): 1190 ng/mL and 822 ng/mL | Plasma concentration, individual patients (40 mg day 1, 24 h): 1220 ng/mL and 677 ng/mL | Plasma concentration, individual patients (80 mg day 0, 0 h, in ng/mL): 0 | Plasma concentration, individual patients (80 mg day 0, 0.5 h): 0 ng/mL | Plasma concentration, individual patients (80 mg day 0, 2 h): 2900 ng/mL and 1130 ng/mL and 2000 ng/mL and 4130 ng/mL and 1950 ng/mL and 3230 ng/mL | Plasma concentration, individual patients (80 mg day 0, 4 h): 2010 ng/mL and 3030 ng/mL and 1520 ng/mL | Plasma concentration, individual patients (80 mg day 0, […], in ng/mL): 0 | Plasma concentration, individual patients (80 mg day 1, 0.5 h): 2360 ng/mL and 757 ng/mL and 378 ng/mL and 2950 ng/mL and 1020 ng/mL and 1250 ng/mL | Plasma concentration, individual patients (80 mg day 1, 1 h): 4420 ng/mL and 1340 ng/mL and 816 ng/mL and 2960 ng/mL and 939 ng/mL and 2250 ng/mL | Plasma concentration, individual patients (80 mg day 1, 2 h): 3650 ng/mL and 1700 ng/mL and 1500 ng/mL and 2460 ng/mL and 1310 ng/mL and 2040 ng/mL | Plasma concentration, individual patients (80 mg day 1, 4 h): 3230 ng/mL and 1160 ng/mL and 3200 ng/mL | Oral absorption (all doses, single and multiple dose): rapidly orally absorbed | concentration at 0 h (human, plasma, oral, 20 mg, 20 mg day 0, 0 h, read-out: Plasma concentration, individual patients): 0 ng/mL | concentration at 4 h (human, plasma, oral, 20 mg, 20 mg day 0, 4 h, read-out: Plasma concentration, individual patients): 885 ng/mL | concentration at 8 h (human, plasma, oral, 20 mg, 20 mg day 0, 8 h, read-out: Plasma concentration, individual patients): 562 ng/mL | concentration at 2 h (human, plasma, oral, 20 mg, 20 mg day 1, 2 h, read-out: Plasma concentration, individual patients): 757 ng/mL | concentration at 4 h (human, plasma, oral, 20 mg, 20 mg day 1, 4 h, read-out: Plasma concentration, individual patients): 1020 ng/mL | concentration at 8 h (human, plasma, oral, 20 mg, 20 mg day 1, 8 h, read-out: Plasma concentration, individual patients): 618 ng/mL | concentration at 2 h (human, plasma, oral, 40 mg, 40 mg day 0, 2 h, read-out: Plasma concentration, individual patients): 2220 ng/mL | concentration at 4 h (human, plasma, oral, 40 mg, 40 mg day 0, 4 h, read-out: Plasma concentration, individual patients): 1450 ng/mL | concentration at 8 h (human, plasma, oral, 40 mg, 40 mg day 0, 8 h, read-out: Plasma concentration, individual patients): 1010 ng/mL | concentration at 24 h (human, plasma, oral, 40 mg, 40 mg day 0, 24 h, read-out: Plasma concentration, individual patients): 203 ng/mL | concentration at 1 h (human, plasma, oral, 40 mg, 40 mg day 1, 1 h, read-out: Plasma concentration, individual patients): 2490 ng/mL | concentration at 2 h (human, plasma, oral, 40 mg, 40 mg day 1, 2 h, read-out: Plasma concentration, individual patients): 2290 ng/mL | concentration at 4 h (human, plasma, oral, 40 mg, 40 mg day 1, 4 h, read-out: Plasma concentration, individual patients): 1640 ng/mL | concentration at 8 h (human, plasma, oral, 40 mg, 40 mg day 1, 8 h, read-out: Plasma concentration, individual patients): 996 ng/mL | concentration at 24 h (human, plasma, oral, 40 mg, 40 mg day 1, 24 h, read-out: Plasma concentration, individual patients): 1150 ng/mL | concentration at 0 h (human, plasma, oral, 80 mg, 80 mg day 0, 0 h, read-out: Plasma concentration, individual patients): 0 ng/mL | concentration at […] (human, plasma, oral, 80 mg, 80 mg day 0, […], read-out: Plasma concentration, individual patients): 0 ng/mL | concentration at 0 h (human, plasma, oral, 160 mg, 160 mg day 0, 0 h, read-out: Plasma concentration, individual patients): 0 ng/mL | concentration at 0 h (human, plasma, oral, 240 mg, 240 mg day 0, 0 h, read-out: Plasma concentration, individual patients): 0 ng/mL | concentration at 8 h (human, plasma, oral, 240 mg, 240 mg day 0, 8 h, read-out: Plasma concentration, individual patients): 4640 ng/mL | concentration at 12 h (human, plasma, oral, 240 mg, 240 mg day 0, 12 h, read-out: Plasma concentration, individual patients): 4200 ng/mL | concentration at 0 h (human, plasma, oral, 240 mg, 240 mg day 15, 0 h, read-out: Plasma concentration, individual patients): 8530 ng/mL | concentration at 0.5 h (human, plasma, oral, 240 mg, 240 mg day 15, 0.5 h, read-out: Plasma concentration, individual patients): 13500 ng/mL | concentration at 1 h (human, plasma, oral, 240 mg, 240 mg day 15, 1 h, read-out: Plasma concentration, individual patients): 17000 ng/mL
